We go through 29 compounds from ChEMBL document CHEMBL1932960, “Discovery and characterization of a potent and selective antagonist of melanin-concentrating hormone receptor 2” (Bioorg Med Chem Lett, 2012).

The term pIC50 denotes the negative decadic logarithm of the IC50, by convention in mol/L. As usually defined, the bioavailability is dose-corrected exposure relative to a reference, in per cent. Usually clearance stands for the volume of plasma or blood freed of the substance per unit of time. The MRT is the average time that molecules of a dose stay in the body. A word on the pKi: it is the Ki on a negative log10 scale, so that one unit is a factor of ten.

pIC50, pKi: −log10 of the molar value. Activity calls are given as the source filed them. The calls are words filed in the database; no cut-off is given here.

The target of data set [1] is T1, Melanin-concentrating hormone receptor 2 (Homo sapiens, UniProt Q969V1). Description: Antagonist activity at human MCHR2 receptor expressed in CHO cells assessed as inhibition of MCH-stimulated Ca2+ flux preincubated for 10 mins prior to MCH-stimulation by FLIPR assay. It counts as functional, cell-based. On the technique in general: Calcium assays in cells follow changes in intracellular calcium, usually with a dye or a luminescent sensor.
T1 sequence (Q969V1 whole entry): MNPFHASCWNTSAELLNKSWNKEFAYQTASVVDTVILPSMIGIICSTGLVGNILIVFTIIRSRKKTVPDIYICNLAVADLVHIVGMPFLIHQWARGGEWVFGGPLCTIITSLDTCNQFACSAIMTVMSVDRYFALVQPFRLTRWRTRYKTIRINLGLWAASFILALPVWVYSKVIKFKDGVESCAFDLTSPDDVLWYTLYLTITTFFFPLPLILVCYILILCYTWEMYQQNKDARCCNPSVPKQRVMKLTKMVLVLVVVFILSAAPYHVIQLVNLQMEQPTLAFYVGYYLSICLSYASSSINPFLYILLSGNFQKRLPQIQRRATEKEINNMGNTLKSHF

Data set [2] in a line: Oral bioavailability in rat at 2 mg/kg. It counts as ADME, organism-based. The following applies: in vivo.
Data set [3] can be described thus: Clearance in rat at 0.5 mg/kg, iv. In kind it is ADME, organism-based. Also on record: dose 0.5 mg/kg, route intravenous. The following applies: in vivo.
The nature of data set [4]: Mean residence time in rat at 0.5 mg/kg, iv. The following applies: in vivo. Also on record: dose 0.5 mg/kg, route intravenous. In kind it is ADME, organism-based.
The target in data set [5] is Voltage-gated inwardly rectifying potassium channel KCNH2 (Homo sapiens, UniProt Q12809). Description: Inhibition of human ERG by rubidium [86Rb] efflux assay.
Voltage-gated inwardly rectifying potassium channel KCNH2, sequence (Q12809 whole entry): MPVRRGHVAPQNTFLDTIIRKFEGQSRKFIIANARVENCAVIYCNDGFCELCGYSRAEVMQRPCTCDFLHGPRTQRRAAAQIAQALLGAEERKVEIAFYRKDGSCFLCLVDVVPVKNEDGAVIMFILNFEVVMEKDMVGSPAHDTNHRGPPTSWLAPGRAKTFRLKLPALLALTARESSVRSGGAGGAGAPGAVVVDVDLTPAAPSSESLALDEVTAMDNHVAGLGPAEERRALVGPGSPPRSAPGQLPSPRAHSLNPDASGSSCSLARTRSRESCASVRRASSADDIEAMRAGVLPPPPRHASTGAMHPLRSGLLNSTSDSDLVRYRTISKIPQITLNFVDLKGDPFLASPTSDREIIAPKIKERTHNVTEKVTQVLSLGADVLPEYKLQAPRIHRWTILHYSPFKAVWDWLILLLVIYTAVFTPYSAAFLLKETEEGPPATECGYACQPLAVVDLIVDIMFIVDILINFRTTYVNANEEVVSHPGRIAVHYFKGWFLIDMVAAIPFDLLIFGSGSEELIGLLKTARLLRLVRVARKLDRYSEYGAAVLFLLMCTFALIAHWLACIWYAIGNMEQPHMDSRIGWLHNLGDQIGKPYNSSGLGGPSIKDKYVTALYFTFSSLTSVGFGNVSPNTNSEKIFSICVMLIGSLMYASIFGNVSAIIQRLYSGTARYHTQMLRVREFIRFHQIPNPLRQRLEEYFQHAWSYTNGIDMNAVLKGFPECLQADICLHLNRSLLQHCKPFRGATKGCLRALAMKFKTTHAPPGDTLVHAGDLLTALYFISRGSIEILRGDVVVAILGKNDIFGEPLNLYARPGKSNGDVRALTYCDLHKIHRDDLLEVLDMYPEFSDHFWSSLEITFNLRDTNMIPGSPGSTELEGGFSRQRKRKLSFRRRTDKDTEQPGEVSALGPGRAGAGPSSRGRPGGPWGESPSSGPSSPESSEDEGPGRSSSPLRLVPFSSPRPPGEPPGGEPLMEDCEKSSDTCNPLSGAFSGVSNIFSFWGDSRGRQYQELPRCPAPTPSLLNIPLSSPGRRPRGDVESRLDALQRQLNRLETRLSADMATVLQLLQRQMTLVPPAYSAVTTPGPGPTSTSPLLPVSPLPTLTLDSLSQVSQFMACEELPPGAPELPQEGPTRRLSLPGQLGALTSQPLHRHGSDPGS
A short description of data set [6]: Mean residence time in rhesus monkey. In kind it is ADME, organism-based, Macaca mulatta. The following applies: in vivo.
Data set [7] addresses Sodium-dependent serotonin transporter (Homo sapiens, UniProt P31645). Description: Inhibition of serotonin transporter.
Data set [8] can be described thus: Clearance in rhesus monkey. It counts as ADME, organism-based, Macaca mulatta. The settings on record: in vivo.
The nature of data set [9]: Oral bioavailability in Beagle dog at 2 mg/kg. It counts as ADME, organism-based, Canis lupus familiaris. The settings on record: in vivo.
The species entered for data set [10] is Homo sapiens. Description: Selectivity ratio of IC50 for serotonin transporter to IC50 for human MCHR2 receptor.
The nature of data set [11]: Clearance in Beagle dog. In kind it is ADME, organism-based, Canis lupus familiaris. The settings on record: in vivo.
Data set [12] addresses D(2) dopamine receptor (Homo sapiens, UniProt P14416). Description: Inhibition of dopamine D2 receptor.
Data set [13] deals with T2, Melanin-concentrating hormone receptor 1 (Homo sapiens, UniProt Q99705). Description: Antagonist activity at MCHR1 up to 50 uM by FLIPR assay. It counts as functional.
T2 sequence (Q99705 whole entry): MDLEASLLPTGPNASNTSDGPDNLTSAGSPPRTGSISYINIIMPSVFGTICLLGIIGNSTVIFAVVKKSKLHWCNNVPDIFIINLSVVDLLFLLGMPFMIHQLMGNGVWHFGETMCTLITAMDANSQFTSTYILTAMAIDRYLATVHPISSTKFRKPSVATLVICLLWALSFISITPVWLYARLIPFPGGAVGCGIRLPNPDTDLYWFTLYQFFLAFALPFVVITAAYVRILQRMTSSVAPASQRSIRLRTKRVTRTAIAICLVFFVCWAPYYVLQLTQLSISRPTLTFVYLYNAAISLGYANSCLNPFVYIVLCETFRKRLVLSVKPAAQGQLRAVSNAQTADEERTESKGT
For data set [14], the target named is T2, Melanin-concentrating hormone receptor 1. Put plainly: Binding affinity to MCHR1 up to 10 uM.
Data set [15] in a line: Mean residence time in Beagle dog. It counts as ADME, organism-based, Canis lupus familiaris. The following applies: in vivo.
Data set [16] in a line: Oral bioavailability in rhesus monkey at 2 mg/kg. It counts as ADME, organism-based, Macaca mulatta. The following applies: in vivo.
The species entered for data set [17] is Homo sapiens. Description: Selectivity ratio of IC50 for dopamine D2 receptor to IC50 for human MCHR2 receptor.
Data set [18] deals with T1, Melanin-concentrating hormone receptor 2. Description: Displacement of [3H]N-(1'-((9-ethyl-9H-carbazol-3-yl)methyl)-2,3-dihydrospiro[indene-1,4'-piperidine]-3-yl)acetamide from human MCHR2 expressed in HEK293 cells after 2 hrs. It counts as cell-based.
Data set [19] deals with T2, Melanin-concentrating hormone receptor 1. Description: Antagonist activity at MCHR1 by FLIPR assay. In kind it is functional.

D(2) dopamine receptor, sequence (P14416 whole entry): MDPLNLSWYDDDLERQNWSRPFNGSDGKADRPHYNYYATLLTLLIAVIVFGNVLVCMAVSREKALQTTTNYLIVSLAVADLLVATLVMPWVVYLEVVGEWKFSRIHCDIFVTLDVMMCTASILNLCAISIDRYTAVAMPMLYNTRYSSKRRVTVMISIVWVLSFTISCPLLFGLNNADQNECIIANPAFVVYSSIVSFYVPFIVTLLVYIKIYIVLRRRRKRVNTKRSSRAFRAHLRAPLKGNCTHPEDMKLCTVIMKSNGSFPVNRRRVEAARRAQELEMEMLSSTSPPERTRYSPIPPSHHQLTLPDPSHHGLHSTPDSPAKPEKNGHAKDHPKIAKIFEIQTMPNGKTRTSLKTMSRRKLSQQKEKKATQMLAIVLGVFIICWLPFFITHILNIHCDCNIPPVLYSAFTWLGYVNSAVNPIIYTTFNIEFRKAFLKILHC
Sodium-dependent serotonin transporter, sequence (P31645 whole entry): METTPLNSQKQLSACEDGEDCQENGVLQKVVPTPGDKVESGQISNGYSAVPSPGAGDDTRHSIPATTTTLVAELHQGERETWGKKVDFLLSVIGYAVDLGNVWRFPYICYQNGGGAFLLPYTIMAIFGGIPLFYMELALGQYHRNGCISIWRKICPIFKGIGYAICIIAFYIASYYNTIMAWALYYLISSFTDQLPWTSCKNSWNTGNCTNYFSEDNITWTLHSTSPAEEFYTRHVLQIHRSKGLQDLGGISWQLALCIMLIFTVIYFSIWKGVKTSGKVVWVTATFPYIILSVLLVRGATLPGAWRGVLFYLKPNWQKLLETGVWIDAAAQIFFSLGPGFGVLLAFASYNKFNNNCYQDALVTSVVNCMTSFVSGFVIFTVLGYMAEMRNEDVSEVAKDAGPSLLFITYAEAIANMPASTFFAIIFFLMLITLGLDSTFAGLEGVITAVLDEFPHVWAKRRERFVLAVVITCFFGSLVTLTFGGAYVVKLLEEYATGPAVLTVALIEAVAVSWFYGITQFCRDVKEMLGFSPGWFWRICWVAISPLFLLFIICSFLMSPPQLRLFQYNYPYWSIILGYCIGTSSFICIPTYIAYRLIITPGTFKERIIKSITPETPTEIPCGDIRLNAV

For `CCn1c2ccccc2c2cc(CCCN3CCC4(C=Cc5ccccc54)CC3)ccc21`, the pIC50 in [1] was 4.82.
Same read-out and setting: in the case of `CCn1c2ccccc2c2cc(CN3CCC4(CC3)CC(O)c3ccccc34)ccc21` (racemic) it was 6.70.
`O[C@@H]1Cc2ccccc2C12CCN(Cc1ccc3[nH]c4ccccc4c3c1)CC2` registered a bioavailability in [2] of 5.9%. For the same compound, the clearance in [3] is 145 mL/min/kg. In addition, in [4], the MRT is 2.8 h. Besides, the negative logarithm of the IC50 (pIC50) in data set [1] was 8.00.
Consider `CC(=O)N[C@@H]1CC2(CCN(Cc3ccc4[nH]c5ccc(F)cc5c4c3)CC2)c2ccccc21`, for which the negative-log IC50 (pIC50) in data set [1] was 8.00.
Same read-out and setting: then `CC(=O)N[C@H]1CC2(CCN(Cc3ccc4[nH]c5ccccc5c4c3)CC2)c2ccccc21`, with 7.89.
The same measure, in the same setting: in the case of `CCn1c2ccccc2c2cc(NC(=O)N3CCC4(C=Cc5ccccc54)CC3)ccc21` it was 4.22; in that of `CC(=O)N[C@@H]1CC2(CCN(Cc3ccc4[nH]c5ccc(Br)cc5c4c3)CC2)c2ccccc21`, 8.00.
Still for that read-out and setting: in the case of `CCn1c2ccccc2c2cc(CN3CCC4(CC3)c3ccccc3[C@H](O)[C@@H]4O)ccc21` (racemic) it was 6.60; in that of `NC(=O)n1c2ccccc2c2cc(CN3CCC4(C=Cc5ccccc54)CC3)ccc21`, 8.40.
Consider `CS(=O)(=O)n1c2ccccc2c2cc(CN3CCC4(C=Cc5ccccc54)CC3)ccc21`, for which the pIC50 in data set [1] was 6.70.
As to `CCn1c2ccccc2c2cc(CCN3CCC4(C=Cc5ccccc54)CC3)ccc21`, the negative logarithm of the IC50 (pIC50) in data set [1] was 5.00.
Still for that read-out and setting: then `CN(C)C(=O)n1c2ccccc2c2cc(CN3CCC4(C=Cc5ccccc54)CC3)ccc21`, with 8.40.
For `CCn1c2ccccc2c2cc(CN3CCC4(CC3)c3ccccc3[C@H](NC(C)=O)[C@H]4O)ccc21` (racemic), the bioavailability in data set [2] worked out at 9%. In [3], this compound had a clearance of 36.7 mL/min/kg. This compound registered an MRT in data set [4] of 14.2 h. Also, in data set [1], the negative-log IC50 (pIC50) was 7.00.
For the compound `CC(=O)N[C@H]1c2ccccc2C2(CCN(Cc3ccc4[nH]c5ccccc5c4c3)CC2)[C@@H]1O` (racemic), the pIC50 in data set [1] is 8.10.
Regarding `CCn1c2ccccc2c2cc(CN3CCC4(CC3)c3ccccc3CC4O)ccc21` (racemic), in data set [1], the pIC50 was 7.52.
For `CC(=O)N[C@@H]1CC2(CCN(Cc3ccc4c(c3)c3ccccc3n4C(N)=O)CC2)c2ccccc21`, the pIC50 in [5] was 5.70; in data set [7], 5.00; in data set [12], 5.82; in data set [1] it was 9.00. Besides, the results for the MRT in data set [6], in data set [4] and in data set [15] were 6.1 h, 18 h and 11 h, respectively. The bioavailability in data set [2] worked out at 37%; in data set [9] it was 73%; in data set [16] it was 47%. Also, the clearance in data set [8] was 10 mL/min/kg; in data set [3] it was 16.7 mL/min/kg; in [11] it was 10 mL/min/kg. Further, the Ratio IC50 in data set [10] and in data set [17] was above 500 throughout. For the same compound, the outcome in [13] and in [14] was inactive. The pKi in data set [18] was 7.89.
For the compound `CCn1c2ccccc2c2cc(CN3CCC4(C=Cc5ccccc54)CC3)ccc21`, the negative logarithm of the IC50 (pIC50) is 4.70 in data set [19] and 6.00 in data set [1].
For `CC(=O)N[C@@H]1CC2(CCN(Cc3ccc4[nH]c5ccc(Cl)cc5c4c3)CC2)c2ccccc21`, in [2], the bioavailability came to 49%. Further, the figures for the pIC50 in data set [7], in [12] and in data set [1] were 7.00, 6.30 and 9.00, respectively. Moreover, the clearance in data set [3] was 13.3 mL/min/kg. The compound further had an MRT in [4] of 9.2 h.
With `CCn1c2ccccc2c2cc(CN3CCC4(CC3)CC(NC(C)=O)c3ccccc34)ccc21` (racemic), in [1], the negative-log IC50 (pIC50) was 10.00.
In the case of `COC(=O)n1c2ccccc2c2cc(CN3CCC4(C=Cc5ccccc54)CC3)ccc21`, in data set [1], the pIC50 is 6.52.
On the same count and under the same terms, then `CC(=O)N[C@@H]1CC2(CCN(Cc3ccc4[nH]c5ccc(C(F)(F)F)cc5c4c3)CC2)c2ccccc21`, with 6.17; and `CCC(=O)n1c2ccccc2c2cc(CN3CCC4(C=Cc5ccccc54)CC3)ccc21`, with 7.00; and `CCn1c2ccccc2c2cc(CN3CCC4(CC3)c3ccccc3CC4NC(C)=O)ccc21` (racemic), with 6.60.
Turning to `O[C@H]1Cc2ccccc2C12CCN(Cc1ccc3[nH]c4ccccc4c3c1)CC2`, in data set [1], the negative-log IC50 (pIC50) was 7.10.
Take `CCn1c2ccccc2c2cc(C(=O)N3CCC4(C=Cc5ccccc54)CC3)ccc21`: the pIC50 in [1] was 4.22.
With `CCn1c2ccccc2c2cc(CN3CCC4(CC3)c3ccccc3[C@H](O)[C@H]4O)ccc21` (racemic), the pIC50 in data set [1] is 6.82.
On the same count and under the same terms, in the case of `CC(=O)n1c2ccccc2c2cc(CN3CCC4(C=Cc5ccccc54)CC3)ccc21` it was 7.15.
Consider `C1=CC2(CCN(Cc3ccc4[nH]c5ccccc5c4c3)CC2)c2ccccc21`, for which the pIC50 in data set [1] was 7.00.
`CC(=O)N[C@@H]1CC2(CCN(Cc3ccc4[nH]c5ccccc5c4c3)CC2)c2ccccc21` came in with a bioavailability in data set [2] of 7.5%. The compound further had a clearance in data set [3] of 20 mL/min/kg. Moreover, in data set [4], the MRT was 18.2 h. Further, the negative-log IC50 (pIC50) in data set [1] was 10.00.
